What was measured:
herpes zoster = assay: in vivo activity in patients with herpes zoster; set-up: species or system human (patients); conditions: of 21 patients; 15 mg/day intramuscular injection, a month
Description: (§1) The 2,4-disubstituted phenol derivatives of the present invention are anti-herpetic agents in vivo, since they eliminate the symptoms of patients suffering from different types of herpes simplex (genital herpes, herpes of mouth and lips, recurrent herpes), and of patients suffering from herpes zoster. There is no relapse after leaving the treatment. The products are active both intramuscularly and topically, the first via being preferred.
A total of 21 patients with clear symptoms of herpes zoster were treated with 15 mg/day of Bobel-24, via intramuscular injection, during a month. The results concerning the disappearance of the symptoms were the following: excellent in 18 cases, good in 2 cases, and regular in 1 case.

feline asthma = assay: treatment of cats with feline asthma; assay type: in vivo, cat; conditions: 5 mg/day, cream applied to the leg and licked
[1] = solubility in aqueous medium; assay type: physicochemical; conditions: in words
Method: Due to the insolubility of Bobel-24 in aqueous medium, it was previously dissolved in a 50% solution of lysine. An anionic sulfonated detergent was used as foaming agent, containing 10-15% tegobetaine, 20-30% texapone N-40, and water. A 2% shampoo was prepared with the following composition: 2 g Bobel-24, 12 ml of 50% aqueous solution of lysine, 48 ml of water, 40 ml of the anionic sulfonated detergent.

[2] = system: lactatedehydrogenase (LDH); assay: liberation of lactatedehydrogenase (LDH) into the medium; conditions: check for cellular lysis
Description: In order to show the 5-LO inhibiting activity of the products of the present invention, a specific test based on human polymorphonuclear leukocytes is chosen.

[3] = system: chronic intestinal pathology, chronic lymphoplasmocitary enteritis and hemorrhagic cholitis; assay: treatment of dogs with gastrointestinal diseases; assay type: in vivo, dog; conditions: ten dogs, 1-2 mg/kg.day
Method: A total of ten dogs diagnosed chronic intestinal pathology, chronic lymphoplasmocitary enteritis (diagnosed through a biopsy and more than a year of evolution) and hemorrhagic cholitis, were treated with doses of 1-2 mg/kg.day of Bobel-24.

canine arthrosis = assay: clinical trial on canine arthrosis; assay type: in vivo, dog; set-up: key: +++: very good response, total recovery; ++: good response, functionability recovery; +: moderate response, improvement; -: negative response or no apparent improvement; conditions: 4 mg/kg day orally, 45 days
Method: After the diagnosis, each animal was treated with Bobel capsules during 45 days, with a follow up every 15 days. Blood, synovial liquid and urine samples were taken at the beginning and at the end of the treatment in order to perform the following tests: Synovial liquid analysis (cytology, cytokines 1,6,8 and TNF); LTB4; LTC4; PGE2; hematic count and leukocyte content; standard serum biochemistry; urine sediment; Rose-Wealer test; and radiology control. The methodology for clinical validation involved applying evaluating uniform parameters and classifying the results according to the following notations: (+++)=very good response, total recovery; (++)=good response, functionability recovery; (+)=moderate response, improvement; (-)=negative response or no apparent improvement.

bacterial strains = assay: mutagenic activity in four bacterial strains; set-up: species or system bacteria
herpes simplex [4] = assay: in vivo activity in patients with herpes simplex; set-up: species or system human (patients); conditions: 15 mg/day intramuscularly, a month
Description: as §1
(§2) A total of 25 patients with symptoms of different herpes simplex (genital, buccal or reincident) were treated with 15 mg/day of Bobel-24, intramuscularly, during a month, with the following results: with the ten patients of genital herpes simplex, the results was excellent in 7 cases, good in 2 and regular in 1; of the twelve with buccal herpes simplex it was excellent in 9 cases, good in 2 and regular in 1; of the 3 with reincident herpes it was excellent in 2 of the cases and good in 1. […] The case of genital herpes which resulted "regular" was an obese and diabetic […], and although there was an improvement there was also reincidency. Independently an test for antiviral activity in vitro resulted negative.

tendonitis = assay: treatment of horses with tendonitis; assay type: in vivo, horse; conditions: 15 mg/day intraarticular infiltration
Method: Twenty five horses suffering from tendonitis, with claudication of the corresponding tendon, were treated with 15 mg/day via intraarticular infiltration of Bobel-24.

herpes simplex [5] = assay: test for antiviral activity in vitro
Description: as §1, §2

[6] = system: canine seborrheic dermatitis; assay: clinical trial on canine seborrheic dermatitis; assay type: in vivo, dog; set-up: key: +++: very good response, clinically cured; ++: good response, marked lowering in the clinical signs; +: moderate response, improvement; -: negative response or no apparent improvement; conditions: weekly bath 2% shampoo, 15 days
Method: (§3) The animals had been diagnosed to suffer from seborrheic dermatitis, and the diagnosis was confirmed by a biopsy. The treatment consisted of a weekly bath with a 2% Bobel-24 shampoo and evaluation of the treatment after 15 days. The efficiency of the treatment was analyzed evaluating the following therapeutic symptoms; removal of scabs and scales, greasiness reduction, sheborrheic odor reduction, relieve of the pruritus, and antiinflammatory effect. […] In view of the results the following conclusions were reached: […]

[7] = system: canine seborrheic dermatitis; assay: clinical trial on canine seborrheic dermatitis; assay type: in vivo, dog; set-up: key: +++: very good response, total recovery; ++: good response, functionability recovery; +: moderate response, improvement; -: negative response or no apparent improvement; conditions: weekly bath 2% shampoo, 15 days
Method: as §3

dogs = assay: acute toxicity in dogs; assay type: in vivo, dog; conditions: after 28 days at doses of 200, 300, 400, 1000 and 2000 mg/kg
seborrheic dermatitis = assay: treatment of dogs with seborrheic dermatitis; assay type: in vivo, dog; conditions: 15 dogs (Cockers), phase I or II, 1 mg/kg.day p.o. plus 2% shampoo
Method: A total of 15 dogs (Cockers) suffering from seborrheic dermatitis in phase I or II were treated with doses of 1 mg/kg.day p.o. of Bobel-24, and were simultaneously washed with a shampoo containing 2% of the same product.

[8] = b363 Poodle 6, b364 Mongrel 14, b374 Mongrel 10, b376 Belgian shepherd 10, b382 Poodle 9, b392 Mongrel 5 years
[9] = b369 German shepherd 10, b377 Pekinese 11, b379 German shepherd 3 years

## Oc1c(I)cc(I)cc1I [Bobel-24, 2,4,6-triiodophenol]
Herpes zoster
  cases with excellent result, herpes zoster: 18 cases
  cases with good result, herpes zoster: 2 cases
  cases with regular result, herpes zoster: 1 cases
Feline asthma
  results in feline asthma: satisfactory results in many cases
[1]
  solubility in aqueous medium: insolubility
[2]
  LDH liberation into the medium: cannot be attributed to cellular lysis
[3]
  response: responded very positively in a short time (1-2 weeks)
Canine arthrosis; Doge 3 years
  Evolution, spondolytis: +++
Canine arthrosis; German shepherd 2 years
  Evolution, broken muscle: +
Canine arthrosis; German shepherd 10 years
  Evolution, generalized arthrosis: ++
Canine arthrosis; Mongrel 14 years
  Evolution, rotular arthrosis: ++
Canine arthrosis; Poodle 11 years
  Evolution, degenerative arthrosis: +++
Canine arthrosis; Poodle 15 years
  Evolution, broken crossed ligament: +
Canine arthrosis; b309 Mastif 11 years, b317 Mongrel 13 years
  Evolution, equine cauda: +++
Canine arthrosis; b312 Rottwailer 1 year, b322 German shepherd 9 years
  Evolution, arthrosis: +++
Bacterial strains
  mutagenic activity: No mutagenic activity
Herpes simplex [4]; 25 patients
  disappearance of the symptoms, herpes simplex overall: clear and generalized disappearance of the symptoms
Herpes simplex [4]; of 3 patients
  cases with excellent result, reincident herpes: 2 cases
  cases with good result, reincident herpes: 1 cases
Herpes simplex [4]; of ten patients
  cases with excellent result, genital herpes simplex: 7 cases
  cases with good result, genital herpes simplex: 2 cases
Herpes simplex [4]; of ten patients, obese and diabetic patient, reincidency
  cases with regular result, genital herpes simplex: 1 cases
Herpes simplex [4]; of twelve patients
  cases with excellent result, buccal herpes simplex: 9 cases
  cases with good result, buccal herpes simplex: 2 cases
  cases with regular result, buccal herpes simplex: 1 cases
tendonitis; horses, 15 days
  outcome in the rest of the cases: the claudication disappeared within the same period of time, but an inflammatory ring persisted around the tendon
tendonitis; of twenty five horses
  cases in which the process was totally reduced in 15 days: 17 cases
Herpes simplex [5]
  antiviral activity in vitro: negative
[6]; [8]
  Evolution, etiology allergic: ++
[6]; [9]
  Evolution, etiology leishmania: ++
[7]; [8]
  Evolution, etiology allergic: +
[7]; [9]
  Evolution, etiology leishmania: +
dogs
  acute toxicity in dogs: not observed
Seborrheic dermatitis
  disappearance of the dermatitis: practically a total disappearance of the dermatitis

— US5985937A, “Use of 2,4-distributed phenol derivatives as 5-lipoxygenase inhibitors” (priority 1994, dated 1999)
